Read-outs that look alike come from different tables or passages of the source.
How the values were obtained:
[1] = system: histamine-induced gastric acid secretion; assay: Inhibition of the histamine-induced gastric acid secretion in rats; assay type: in vivo, male OFA rats; conditions: for Gastric acid, change / Gastric juice, change: vs control; for Gastric juice, treated: histamine 5 mg/kg/hour;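 for Gastric acid, treated: dosed 30 min before a 5 hour experiment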
Experimental: (§1) After being starved for 24 hours, male OFA rats weighing 250 to 320 g were anaestethized by 40% urethane (0.5 ml/100 g), then the trachea and jugular vein were cannulated (10 animals were used for each dose). A glass cannula was inserted to the stomach from the direction of the pylorus. The stomach was washed with lukewarm water and then purified by air blown through. The gastric acid secretion was induced by an infusion of histamine (5 mg/kg/hour), or pentagastrin (0.05 mg/kg/hour) or carbachol (0.01 mg/kg/hour), respectively. […]

[2] = system: gastric ulcer after pylorus ligature; assay: Gastric ulcer-inhibiting effect in rats operated according to Shay's method; assay type: in vivo, female OFA rats; conditions: Rattus norvegicus, po, 18 h, p.o.
Experimental: Female OFA rats starved for 24 hours weighing 150 to 160 g were used. (The animals were allowed to drink water ad libitum). The animals were orally treated with the substance to be tested and after 1 hour laparotomy and pylorus ligature according to Shay [Gastroenterology 5, 43 (1945)] were performed under ether anaesthesia. After 18 hours the number and size of ulcers formed on the membranaceous part of the stomach were examined under microscope. The evaluation was made in relation to the control group and the ED50 values were determined. The sizes of the ulcers were expressed as score values from 0.5 to 32.

[3] = system: spontaneous gastric acid secretion; assay: Gastric acid secretion-inhibiting effect according to Shay's method; assay type: in vivo, female OFA rats; conditions: for Gastric acid, change / Gastric juice, change: vs control; for Gastric acid, treated: titration with 0.1N NaOH
Experimental: After being starved for 24 hours, female OFA rats weighing 130 to 160 g were orally treated with the compounds to be tested. (15 animals were used for each dose.) One hour later laparotomy and pylorus ligature were carried out under ether anaesthesia according to Shay [Gastroenterology 5, 43 (1945)]. After 5 hours the animals were killed by an overdose of ether, their stomaches were excised and the volume and acid content of the gastric juice were determined. The acid was measured by titration with 0.1N NaOH, by using Topfer's indicator.

Acute toxicity, rat = conditions: in vivo
Experimental: These investigations were carried out in OFI mice and OFA rats after starving for 24 hours. Ten animals were used for each dose. The number of doses was 3 or 4.

[4] = system: acetic acid-induced chronic ulcer; assay: Recovery-influencing effect on the acetic acid-induced chronic ulcer; assay type: in vivo, female RG-Wistar rats; conditions: 15 mg/kg oral dose, daily twice for 15 days
Experimental: After anaesthesia by ether and laparotomy, 50 μl of 20% acetic acid were injected into the stomach wall of female RG-Wistar rats. After 5 days the animals were orally treated with the compounds to be tested daily twice for 15 days. On the 16th day the animals were killed by ether and the size of the ulcers appearing on the stomach was measured. The grade of recovery was defined in relation to the control group.

[5] = system: carbachol-induced gastric acid secretion; assay: Inhibition of the carbachol-induced gastric acid secretion in rats; assay type: in vivo, male OFA rats; conditions: for Gastric acid, change / Gastric juice, change: vs control; for Gastric juice, treated: carbachol 0.01 mg/kg/hour;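 for Gastric acid, treated: dosed 30 min before a 5 hour experiment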
Experimental: as §1

[6] = system: indomethacin-induced gastric ulcer; assay: Inhibition of the indomethacin-induced gastric ulcer; assay type: in vivo, female RG-Wistar rats; conditions: Rattus norvegicus, po; indomethacin 20 mg/kg orally
Experimental: After being starved for 24 hours, female RG-Wistar rats were orally treated with the compounds to be tested and then orally with 20 mg/kg of indomethacin after 30 minutes. The evaluation was carried out in relation to the control group and the ED50 values were determined.

[7] = system: gastric ulcer induced by Aspirin plus stress; assay: Inhibition of the gastric ulcer induced by Aspirin plus stress; assay type: in vivo, female RG-Wistar rats; conditions: Rattus norvegicus, po; Aspirin plus stress
Experimental: After being starved for 24 hours, female RG-Wistar rats weighing 120 to 150 g were orally treated with the compound to be tested and then orally with Aspirin. The animals were sensitized by the aspirin pretreatment and a strong ulceration was induced in the glandular part of stomach of the animals by a subsequent stress (fastening, ducking in water of 22° C. temperature). The ulceration was evaluated as score values from 0 to 2.

[8] = system: necrosis induced by ethanol containing hydrochloric acid; assay: Cytoprotective effect (modified Robert's test); assay type: in vivo; conditions: for Bleedings, change: vs control
Experimental: The modified Robert's test [Gastroenterology 17, 761 (1979)] was used. The necrotizing agent (100 ml of abs. ethanol containing 2 ml of concentrated hydrochloric acid) was orally administered in a volume of 0.5 ml/100 g by 30 minutes after giving the compound to be tested. (12 animals were used for each dose.) After 1 hour the animals were killed by ether and the bleedings on the glandular part of their stomach were evaluated.

[9] = system: reserpine-induced gastric ulcer; assay: Inhibition of the reserpine-induced gastric ulcer; assay type: in vivo, female OFA rats; conditions: Rattus norvegicus, po, 18 h, p.o., reserpine 5 mg/kg s.c.
Experimental: After being starved for 24 hours, female OFA rats were orally treated with the compounds to be tested and then subcutaneously (s.c.) with 5 mg/kg of reserpine after 1 hour. After 18 hours the animals were killed and their stomach were examined under microscope. The evaluation was performed as described under the preceding paragraph 1.

[10] = read-out: ED50 related to the number of ulcers
[11] = read-out: ED50 related to the occurrance of ulcers
[12] = read-out: ED50 related to the severity of ulcers

CN(C)c1ccccc1C[S+]([O-])c1nc2ccccc2[nH]1 (centres unmarked) [NC-1300, 2-[(2-dimethylaminobenzyl)sulfinyl]-1H-benzimidazole, reference compound]
Gastric acid, treated ([1]; 5 mg/kg i.p.): 1.97 mL | Gastric acid, change ([1]; 5 mg/kg i.p.): -43% | Gastric juice, change ([1]; 5 mg/kg i.p.): -45% | Gastric juice, treated ([1]; 5 mg/kg i.p.): 1.27 mL | Gastric acid, treated ([1]; 10 mg/kg i.p.): 0.78 mL | Gastric acid, change ([1]; 10 mg/kg i.p.): -77% | Gastric juice, change ([1]; 10 mg/kg i.p.): -79% | Gastric juice, treated ([1]; 10 mg/kg i.p.): 0.49 mL | Gastric acid, treated ([1]; 20 mg/kg i.p.): 0.61 mL | Gastric acid, change ([1]; 20 mg/kg i.p.): -82% | Gastric juice, change ([1]; 20 mg/kg i.p.): -78% | Gastric juice, treated ([1]; 20 mg/kg i.p.): 0.50 mL | ED50 ([1]; Rattus norvegicus, ip, histamine-induced, dose column i.p.): 6 mg/kg | ED50 [2, 10]: 7.4 mg/kg | ED50 [2, 11]: 14.5 mg/kg | ED50 [2, 12]: 5.7 mg/kg | Gastric juice, treated ([3]; 10 mg/kg p.o.): 6.11 mL | Gastric acid, change ([3]; 10 mg/kg p.o.): -34.0% | Gastric juice, change ([3]; 10 mg/kg p.o.): -16.3% | Gastric acid, treated ([3]; 10 mg/kg p.o.): 2.74 mL | Gastric juice, treated ([3]; 20 mg/kg p.o.): 4.63 mL | Gastric acid, change ([3]; 20 mg/kg p.o.): -58.2% | Gastric juice, change ([3]; 20 mg/kg p.o.): -17.5% | Gastric acid, treated ([3]; 20 mg/kg p.o.): 1.36 mL | Gastric juice, treated ([3]; 50 mg/kg p.o.): 4.50 mL | Gastric acid, change ([3]; 50 mg/kg p.o.): -88.1% | Gastric juice, change ([3]; 50 mg/kg p.o.): -23.7% | Gastric acid, treated ([3]; 50 mg/kg p.o.): 0.41 mL | ED50 ([3]; po, gastric acid, Shay rat): 16 mg/kg | LD50 (Acute toxicity, rat; ip, female rat): 245 mg/kg | LD50 (Acute toxicity, rat; ip, male rat): 270 mg/kg | LD50 (Acute toxicity, rat; po, female rat, precision restricted by solubility): 1400 mg/kg | LD50 (Acute toxicity, rat; po, male rat, precision restricted by solubility): 1300 mg/kg | increase in the recovery [4]: 37% | Gastric acid, treated ([5]; 6.25 mg/kg i.p.): 1.89 mL | Gastric acid, change ([5]; 6.25 mg/kg i.p.): -31% | Gastric juice, change ([5]; 6.25 mg/kg i.p.): -25% | Gastric juice, treated ([5]; 6.25 mg/kg i.p.): 1.55 mL | Gastric acid, treated ([5]; 9 mg/kg i.p.): 1.86 mL | Gastric acid, change ([5]; 9 mg/kg i.p.): -32% | Gastric juice, change ([5]; 9 mg/kg i.p.): -24% | Gastric juice, treated ([5]; 9 mg/kg i.p.): 1.57 mL | Gastric acid, treated ([5]; 12.5 mg/kg i.p.): 0.72 mL | Gastric acid, change ([5]; 12.5 mg/kg i.p.): -74% | Gastric juice, change ([5]; 12.5 mg/kg i.p.): -58% | Gastric juice, treated ([5]; 12.5 mg/kg i.p.): 0.87 mL | ED50 ([5]; Rattus norvegicus, ip, carbachol-induced, dose column i.p.): 9.6 mg/kg | ED50 [6]: 8.4 mg/kg | ED50 [7]: 11.9 mg/kg | Bleedings, treated ([8]; 5 mg/kg p.o.): 84.4 mm | Bleedings, change ([8]; 5 mg/kg p.o.): -21.7% | Bleedings, treated ([8]; 10 mg/kg p.o.): 42.25 mm | Bleedings, change ([8]; 10 mg/kg p.o.): -60.8% | Bleedings, treated ([8]; 20 mg/kg p.o.): 11.65 mm | Bleedings, change ([8]; 20 mg/kg p.o.): -86.0% | ED50 ([8]; po, cytoprotection): 8.6 mg/kg | ED50 [9, 10]: 8 mg/kg | ED50 [9, 11]: 18 mg/kg | ED50 [9, 12]: 6 mg/kg
